The values below come from patent EP0358766A1, “METHOD OF STERILIZING PLANT ANTHERS” (VSESOJUZNY NAUCHNO-ISSLEDOVATELSKY INST. SELSKOKHOZYAISTV. …, priority 1988, dated 1989).

Test [1] deals with Winterweizens Sorte Mironowskaya 808. Nature of the test: Field test of gametocidal activity (anther sterilisation), winter wheat Mironowskaya 808. Type of test: in vivo, Weizen. Particulars: Mironowskaya 808, period V of organogenesis, 2% aqueous emulsion, 20 kg/ha in 1000 l water; for Prozentsatz des Ansetzens von Samen bei freier Bestäubung: control = 100. The text has this: (§1) Die gametozide Aktivität der erfindungsgemäßen Sterilisationsmittel war in Feldversuchen in verschiedenen bodenklimatischen Zonen mit Teilstücken von 10 m^2 Größe in dreibis viermaliger Wiederholung festgestellt. Jedes Sterilisationsmittel wurde mindenstens 5 Jahre lang geprüft.
(§2) Die Entwicklung der Perioden der Organogenese wird zytologisch überwacht. Die Behandlung von Pflanzen mit dem Sterilisationsmittel erfolgt am Anfang der fünften Periode der Organogenese nach Kupermann.
(§3) Mit dem Ährenschieben verwirklicht man die Isolierung von Hauptähren und anderen Stockwerken in Pergametbeuteln. Bei Weizen und Tritikale werden Einzelisolatoren benutzt. Bei Roggen schließt man je 1 Ähre von […] verschiedenen nebeneinander befindlichen Pflanzen unter einen gemeinsamen Isolator ein. Bei Hirse wird jede Rispe getrennt isoliert. Der Sterilitätsprozentsatz (X) für Weizen, Roggen, Tritikale und Hirse wird nach der Formel [formula] ermittelt.
(§4) Die Kornzahl in nicht isolierten Ähren von Kontrollpflanzen wird bedingt für 100 % Ansetzen bei freier Bestäubung angenommen.
(§5) Um zuverlässige Angaben zu erhalten, verwendet man 20 bis 25 Isolatoren je Wiederholung für Weizen und Tritikale, 10 bis 15 Isolatoren jeder Wiederholung für Roggen und Hirse.
Pflanzen des Winterweizens Sorte Mironowskaya 808 werden in der V.Periode der Organogenese durch Zerstäubung der 2%igen wäßrigen Emulsion von 1,1,3-Tribrompropan mit Hilfe einer Rückenspritze behandelt.
Als Emulgierungsmittel setzt man 0,5 Masse% C12-C14--Kalziumalkylbenzolsulphonat zu. Als Adjuvans enthält die Emulsion 0,01 Masse% Dimethylsulfoxid. Der Verbrauch an Präparat beträgt 20 kg/ha bei 1000 Liter Wasserdurchsatz. Als Kontrolle dienen Pflanzen, behandelt mit einem Verdünner ohne Sterilisationsmittel. Die Ergebnisse sind in der Tabelle 1 angegeben.
Der ProzeB wird analog zu dem in Beispiel 1 beschriebenen durchgeführt. Als Sterilisationsmittel verwendet man eine 2%ige waßrige Emulsion von 1,1,3-Tribrom-4-chlorbutan, 1,1,2,3-Tetrabrompropan. Die Prüfergebnisse sind in der Tabelle 1 angegeben.
Der Prozeß wird analog zu dem in Beispiel 1 beschriebenen durchgeführt, nur daß man 1%ige wäßrige Emulsion von 1,2,3-Tribrompropan, 1,2-Dibrompropan, 1,1,3-Tribrom-3--chlorpropan, 1,2-Dibrom-3-chlorpropan, 1,3-Dibrompropan, 1,1,1,3-Tetrabromheptan, 1,1,3-Tribromheptan, 1,2-Dibromheptan verwendet. Die Präparatdosis beträgt 10 kg ha. Die Prüfergebnisse sind in der Tabelle 1 angegeben. Die gleichen Ergebnisse sind bei der Behandlung des Weizens Sorte Mironowskaya 808 in der VI. Periode der Organogenese erhalten.

In test [2] the test system is diploidem Roggen Voskhod 2. Nature of the test: Field test of gametocidal activity, diploid rye Voskhod 2. Type of test: in vivo. Particulars: period V, 1% aqueous emulsion, 10 kg/ha in 1000 l water; for Prozentsatz des Ansetzens von Samen bei freier Bestäubung: control = 100.
Source text: as §1, §2, §3, §4, §5
Pflanzen von diploidem Roggen Voskhod 2 werden in der V. Periode der Organogenese mit einer 1%igen wäßrigen Emulsion von 1,1,3-Tribrompropan, 1,1,3-Tribrom-4-chlorbutan bzw. 1,1,2,3-Tetrabrompropan behandelt. Die Emulsion enthält 0,5 Masse% C12-C14-Kalziumalkylbenzolsulfonat und 0,01 Masse% Dimethylformamid. Der Verbrauch an Präparat beträgt 10 kg/ha bei 1000 1 Wasserdurchsatz. Die Prüfergebnisse sind in der Tabelle 14 angegeben. Die gleichen Ergebnisse sind bei der Behandlung von diploidem Roggen Voskhod 2 in der VI. Periode der Organogenese erhalten..

The subject of the next test is diploidem Roggen Chulpan. Put plainly: Field test of gametocidal activity, diploid rye Chulpan. Type of test: in vivo. Conditions: for Kornzahl der Ähre bei freier Bestäubung / Kornzahl der Ähre im Isolator / Prozentsatz des Ansetzens von Samen bei freier Bestäubung: Chulpan, period V, 1% aqueous emulsion, 10 kg/ha; for Prozentsatz des Ansetzens von Samen bei freier Bestäubung: control = 100; for pest or weed control at 10000 g/ha: read-out: Prozentsatz der Sterilität.
Source text: as §1, §2, §3, §4, §5
Pflanzen von diploidem Roggen Chulpan werden in der V.Periode der Organogenese mit einer 1%igen wäßrigen Emulsion von 1,1,3-Tribrompropan, 1,1,3-Tribrom-4-chlorbutan, 1,1,2,3-Tetrabrompropan, 1,2,3-Tribrompropan, 1,2-Dibrompropan, 1,1,3-Tribrom-3-ohlorpropan, 1,2-Dibrom-3--chlorpropan, 1,3-Dibrompropan, 1,1,1,3-Tetrabromheptan, 1,1,3-Tribromheptan bzw. 1,2-Dibromheptan behandelt. Die Emulsion enthält 0,5 Masse% C12-C14-Kalziumalkylbenzolsul- fonat und 0,01 Masse% Dimethylsulfoxid. Der Verbrauch an Präparat beträgt 10 kg/ha. Die Prüfergebnisse sind in der Tabelle 11 angegeben. Die gleichen Ergebnisse sind bei der Behandlung von diploidem Roggen Chulpan in der VI. Periode der Organogenese erhalten.

Test [3] deals with Sommerweizens Sorte Moskowskaya 35. Put plainly: Field test of gametocidal activity, spring wheat Moskowskaya 35. It is filed as in vivo, Weizen. Conditions: for Kornzahl der Ähre bei freier Bestäubung / Kornzahl der Ähre im Isolator / Prozentsatz des Ansetzens von Samen bei freier Bestäubung: Moskowskaya 35, period V, 1% aqueous emulsion, 6 kg/ha in 600 l water; for Prozentsatz des Ansetzens von Samen bei freier Bestäubung: control = 100; for pest or weed control at 6000 g/ha: read-out: Prozentsatz der Sterilität.
Source text: as §1, §2, §3, §4, §5
Pflanzen des Sommerweizens Sorte Moskowskaya 35 werden in der V. Periode der Organogenese (nach Kupermann) mit einer l%igen wäßrigen Emulsion von 1,1,3-Tribrompropan, […], 1,1,2,3-Tetrabrompropan, 1,2,3-Tribrompropan, 1,2-Dibrompropan, 1,1,3-Tribrom-3-chlorpropan, 1,2-Dibrom-3-chlorpropan, 1,3-Dibrompropan, 1,1,1,3-Tetrabromheptan bzw. 1,1,3-Tribromheptan behandelt. Die Emulsion enthält als Emulgierungsmittel 0,5 Masse% C12-C14-Kalzium- alkylbenzolsulfonat und als Adjuvans 0,01 Masse% Dimethylformamid. Der Verbrauch an Präparat beträgt 6 kg/ha bei 600 1 Wasserdurchsatz. Als Kontrolle dienen Pflanzen, behandelt mit dem Verdünner ohne Sterilisationsmittel.
Die Prüfergebnisse sind in der Tabelle 2 angegeben. Die gleichen Ergebnisse sind bei der Behandlung des Sommerweizens Sorte Moskowskaya 35 in der VI.Periode der Organogenese erhalten.

Test [4] deals with tetraploidem Roggen Belta. Nature of the test: Field test of gametocidal activity, tetraploid rye Belta. It is filed as in vivo. Particulars: period V, 1% aqueous emulsion, 6 kg/ha in 600 l water; for Prozentsatz des Ansetzens von Samen bei freier Bestäubung: control = 100.
Source text: as §1, §2, §3, §4, §5
Pflanzen von tetraploidem Roggen Belta werden in der V.Periode der Organogenese (nach Kupermann) mit einer 1%igen wäßrigen Emulsion von 1,1,3-Tribrompropan, 1,1,3--Tribrom-4-chlorbutan, 1,1,2,3-Tetrabrompropan, 1,2,3-Tribrompropan, 1,1,3-Tribrom-3-chlorpropan bzw. 1,2-Dibrom--3-chlorpropan behandelt.
Die Emulsion enthält 0,5 Masse% C12-C14-Kalziumalk^yl-benzolsulfonat und 0,01 Masse% Dimethylsulfoxid. Der Verbrauch an Präparat beträgt 6 kg/ha bei 600 1 Wasserdurchsatz.Die Prüfergebnisse sind in der Tabelle 7 angegeben. Die gleichen Ergebnisse sind bei der Behandlung von tetraploidem Roggen Belta in der VI. Periode der Organogenese erhalten.

Test [5] has as its system Winterweizens Sorte Mironowskaya 808. Put plainly: Field test of gametocidal activity (anther sterilisation), winter wheat Mironowskaya 808. It is filed as in vivo, Weizen. Particulars: read-out: Prozentsatz der Sterilität %.

Molecules are shown by their SMILES.

Turning to `ClCC(Br)CC(Br)Br` (stereo not shown) [Beispiel 2, 1,1,3-Tribrom-4-chlorbutan], in test [1], the “Kornzahl der Ähre bei freier Bestäubung” value is 41,3, the “Kornzahl der Ähre im Isolator” value is 1,1 and the “Prozentsatz des Ansetzens von Samen bei freier Bestäubung” value is reported as 86,0%. For the same molecule, in test [2], the “Kornzahl der Ähre bei freier Bestäubung” value is listed as 52,4, the “Kornzahl der Ähre unter Isolator” value is on record as 1,0, the “Prozentsatz der Sterilität” value was 97,2% and the “Prozentsatz des Ansetzens von Samen bei freier Bestäubung” value is reported as 96,0%. In the test on diploidem Roggen Chulpan, the “Kornzahl der Ähre bei freier Bestäubung” value is on record as 47,8, the “Kornzahl der Ähre im Isolator” value is 1,0, the “Prozentsatz des Ansetzens von Samen bei freier Bestäubung” value was 95,4% and the pest or weed control at 10000 g/ha was 98%. Besides, in test [3], the “Kornzahl der Ähre bei freier Bestäubung” value is on record as 36,5, the “Kornzahl der Ähre im Isolator” value is on record as 0,6, the “Prozentsatz des Ansetzens von Samen bei freier Bestäubung” value is listed as 95,5% and the pest or weed control at 6000 g/ha came out at 99.2%. In test [4], the “Kornzahl der Ähre bei freier Bestäubung” value was 42,6, the “Kornzahl der Ähre im Isolator” value is recorded as 0,8, the “Prozentsatz der Sterilität” value is reported as 98,0% and the “Prozentsatz des Ansetzens von Samen bei freier Bestäubung” value is on record as 96,4%. Besides, the pest or weed control at 1 %, 20000 g/ha in test [5] came out at 97.3%.
Consider `BrCC(Br)C(Br)Br` (stereo not shown) [Beispiel 3, 1,1,2,3-Tetrabrompropan], for which, in test [1], the “Kornzahl der Ähre bei freier Bestäubung” value is on record as 35,1, the “Kornzahl der Ähre im Isolator” value is on record as 1,0 and the “Prozentsatz des Ansetzens von Samen bei freier Bestäubung” value was 94,1%. Moreover, in test [2], the “Kornzahl der Ähre bei freier Bestäubung” value is recorded as 45,7, the “Kornzahl der Ähre unter Isolator” value is listed as 0,2, the “Prozentsatz der Sterilität” value is 99,6% and the “Prozentsatz des Ansetzens von Samen bei freier Bestäubung” value is reported as 83,7%. Further, in the test with diploidem Roggen Chulpan, the “Kornzahl der Ähre bei freier Bestäubung” value was 44,3, the “Kornzahl der Ähre im Isolator” value is recorded as 0,4, the “Prozentsatz des Ansetzens von Samen bei freier Bestäubung” value is reported as 88,4% and the pest or weed control at 10000 g/ha was determined as 99.2%. Moreover, in test [3], the “Kornzahl der Ähre bei freier Bestäubung” value is 31,8, the “Kornzahl der Ähre im Isolator” value is reported as 0,3, the “Prozentsatz des Ansetzens von Samen bei freier Bestäubung” value is given as 83,2% and the pest or weed control at 6000 g/ha is 99.1%. In addition, in test [4], the “Kornzahl der Ähre bei freier Bestäubung” value was 40,1, the “Kornzahl der Ähre im Isolator” value is reported as 0,6, the “Prozentsatz der Sterilität” value is recorded as 98,5% and the “Prozentsatz des Ansetzens von Samen bei freier Bestäubung” value is reported as 90,7%. Also, the pest or weed control at 1 %, 20000 g/ha in test [5] was determined as 97.3%.
